According to US8946302B2, “Selective sigma-1 receptor ligands” (Wisconsin Alumni Research Foundation, priority 2008, dated 2015):

Key:
sigma-1 receptor [1] = target: sigma-1 receptor (Cavia porcellus, UniProt Q60492); assay: Affinity for the sigma-1 receptor (Table 3); format: binding; set-up: from tissue
[2] = test system: INa in neonatal mouse cardiac myocytes; assay: Patch clamp INa in neonatal cardiac myocytes from WT and sigma-1 receptor KO mice; format: cell-based; settings: n=7
Description: Neonatal mouse cardiac myocytes were enzymatically isolated and cultured on laminin-coated glass coverslips as previously described (33, 34) with minor changes (26).
(§1) INa was recorded using whole-cell patch clamp at room temperature. All patch clamp solutions used as well as patch clamp methodology and instrumentation details are previously described (26) with the exception of testing INa inhibition with 100 μM DMT.

[3] = test system: WT and sigma-1 receptor knockout mice; assay: Open-field hypermobility assay in WT and sigma-1 receptor KO mice; format: in vivo, mouse; settings: 2 mg/kg i.p. two hours after pargyline 75 mg/kg i.p.
Description: All mice were maintained on a normal light/dark cycle and handled in accordance with Animal Care and Use Guidelines of the University of Wisconsin, Madison. […] Mice were first acclimatized to the experimental room for one hour. WT and KO mice were injected with the monoamine oxidase inhibitor, pargyline (75 mg/kg, i.p.) two hours prior to DMT or vehicle injection(28). […] Each condition represents 8 to 14 mice (n=8-14). […] A computer program was used to quantitate movement and after each experiment, 70% ethanol was used to remove odors from the open-field.

hNav1.5 = assay: Patch clamp INa in COS-7 cells transiently transfected with hNav1.5; format: cell-based, human; settings: 100 μM, n=3
Description: (§2) To evaluate the capacity of DMT to induce physiological responses by binding to sigma receptors, the action of DMT on voltage-activated Na^+ current was examined. […] Application of 100 μM DMT inhibited INa by 62±3% (n=3), which reversed upon DMT removal. With hNav1.5 transiently transfected into COS-7 cells, 100 μM DMT inhibited INa by only 22±4% (n=3), but photolabeling has shown that these cells have much lower levels of endogenous sigma-1 receptor compared to HEK293 cells (26) (FIG. 7b).
(§3) HEK293 cells stably expressing hNav1.5 were provided by Dr. J. C. Makielski at the University of Wisconsin-Madison (32). COS-7 cells were transiently transfected with recombinant cDNA encoding hNav1.5 using Lipofectamine. Both cell types were cultured on glass coverslips at 37° C. in 5% CO2/air atmosphere, and used for electrophysiological recordings within 3-5 days.
as §1

sigma-1 receptor [4] = target: T1, sigma-1 receptor (Rattus norvegicus, UniProt Q9R0C9); assay: Protection of [125I]-IACoc photolabeling in rat liver membranes; format: binding
T1 construct: from tissue; host or cells: rat liver membranes
T1 sequence (Q9R0C9 whole entry): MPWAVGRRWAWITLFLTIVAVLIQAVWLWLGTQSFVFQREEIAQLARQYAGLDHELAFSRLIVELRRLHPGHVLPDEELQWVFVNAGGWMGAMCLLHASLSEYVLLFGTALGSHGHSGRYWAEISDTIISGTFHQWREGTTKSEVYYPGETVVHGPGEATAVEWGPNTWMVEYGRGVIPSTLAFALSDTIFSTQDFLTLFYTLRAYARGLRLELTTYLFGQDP
Description: (§4) Rat liver membranes (100 μg/lane) were suspended in the presence or absence of the protecting drugs. […] Percent band intensities are shown compared to controls performed in the absence of protecting ligand (−).

sigma-1 receptor [5] = target: T1, sigma-1 receptor; assay: Protection of [125I]IAF photolabeling of the sigma-1 receptor in rat liver membranes; format: binding
Description: as §4

[6] = test system: human cardiac Na+ channel hNav1.5; assay: Patch clamp INa in HEK293 cells stably expressing hNav1.5; format: cell-based; settings: 100 μM, n=3
Description: as §2, §3, §1

Sequence of sigma-1 receptor (Cavia porcellus, UniProt Q60492) (Q60492 whole entry): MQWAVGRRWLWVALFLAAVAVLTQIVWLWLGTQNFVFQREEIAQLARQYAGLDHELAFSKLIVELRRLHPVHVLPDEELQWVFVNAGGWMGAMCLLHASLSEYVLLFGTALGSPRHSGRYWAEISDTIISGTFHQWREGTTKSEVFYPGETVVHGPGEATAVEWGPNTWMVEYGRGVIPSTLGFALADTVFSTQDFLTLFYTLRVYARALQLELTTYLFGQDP

CN(C)CCc1c[nH]c2ccccc12 [DMT, 2-(1H-indol-3-yl)-N,N-dimethylethylamine]
Kd (sigma-1 receptor [1]): 14.6 µM
inhibition at 100 µM ([2]; KO myocytes): 7 ± 2%
inhibition at 100 µM ([2]; WT neonatal cardiac myocytes): 29 ± 3%
distance traveled in open-field assay (hypermobility) ([3]; WT mice): 7025±524.1 cm
distance traveled in open-field assay (hypermobility) ([3]; sigma-1 receptor KO mice): 2328±322.9 cm
inhibition of INa (hNav1.5): 22±4%
protection of [125I]-IACoc photolabeling of the 26 kDa sigma-1 receptor (sigma-1 receptor [4]; 50 μM): 61%
protection of [125I]-IACoc photolabeling of the 26 kDa sigma-1 receptor (sigma-1 receptor [4]; 100 μM): ~100%
protection of [125I]IAF photolabeling of the sigma-1 receptor (sigma-1 receptor [5]; 10 μM): 31%
protection of [125I]IAF photolabeling of the sigma-1 receptor (sigma-1 receptor [5]; 50 μM): 43%
protection of [125I]IAF photolabeling of the sigma-1 receptor (sigma-1 receptor [5]; 100 μM): 69%
inhibition of INa [6]: 62±3%
